The record followed here is ChEMBL document CHEMBL3351292, “Structure-Based Design and Synthesis of Potent Cyclic Peptides Inhibiting the YAP-TEAD Protein-Protein Interaction” (ACS Med Chem Lett, 2014).

SMILES strings stand for the structures. Where a SMILES comes first, the peptide text is derived from it. Bridges are numbered along the chain shown (N, C = ends). [ ]: non-standard residue; d: D form. hCys = N[C@@H](CCS)C(=O)O A value given as a limit tells only on which side of the number the result lay.

Assay [1] deals with T1, Transcriptional coactivator YAP1/Transcriptional enhancer factor TEF-1 (Homo sapiens, UniProt P28347). As to the kind of experiment: Inhibition of YAP/ GST-TEAD1 (unknown origin) interaction by surface plasmon resonance assay. Type of assay: protein assay. For orientation: In SPR one partner is held on a chip, and binding of the other changes the refractive index at the surface.

The target in assay [2] is T1, Transcriptional coactivator YAP1/Transcriptional enhancer factor TEF-1. As to the kind of experiment: Inhibition of YAP/ GST-TEAD1 interaction in human Bel-7404 cells […]. Type of assay: cell-based, Bel7404.
Assay [3] deals with Transcriptional coactivator YAP1/Transcriptional enhancer factor TEF-1 (Homo sapiens) (UniProt P46937+P28347). As to the kind of experiment: Inhibition of YAP/ GST-TEAD1 (unknown origin) interaction at 50 uM by surface plasmon resonance assay. Type of assay: protein assay.
Sequence of Transcriptional coactivator YAP1/Transcriptional enhancer factor TEF-1 (Homo sapiens) (P28347 whole entry, looked up): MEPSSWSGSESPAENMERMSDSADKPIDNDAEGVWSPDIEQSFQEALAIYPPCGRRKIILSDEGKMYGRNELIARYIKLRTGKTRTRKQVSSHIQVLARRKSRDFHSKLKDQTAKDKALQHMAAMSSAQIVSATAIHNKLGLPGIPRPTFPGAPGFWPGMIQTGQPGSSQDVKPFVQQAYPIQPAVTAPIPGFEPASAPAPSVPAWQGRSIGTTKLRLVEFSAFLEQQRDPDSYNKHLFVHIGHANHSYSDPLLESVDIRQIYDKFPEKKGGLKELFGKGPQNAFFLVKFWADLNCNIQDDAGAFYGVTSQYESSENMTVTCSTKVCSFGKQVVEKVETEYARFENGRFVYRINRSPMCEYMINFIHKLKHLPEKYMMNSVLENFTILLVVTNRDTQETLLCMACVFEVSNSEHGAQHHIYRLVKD
Sequence of Transcriptional coactivator YAP1/Transcriptional enhancer factor TEF-1 (Homo sapiens) (P46937 whole entry, looked up): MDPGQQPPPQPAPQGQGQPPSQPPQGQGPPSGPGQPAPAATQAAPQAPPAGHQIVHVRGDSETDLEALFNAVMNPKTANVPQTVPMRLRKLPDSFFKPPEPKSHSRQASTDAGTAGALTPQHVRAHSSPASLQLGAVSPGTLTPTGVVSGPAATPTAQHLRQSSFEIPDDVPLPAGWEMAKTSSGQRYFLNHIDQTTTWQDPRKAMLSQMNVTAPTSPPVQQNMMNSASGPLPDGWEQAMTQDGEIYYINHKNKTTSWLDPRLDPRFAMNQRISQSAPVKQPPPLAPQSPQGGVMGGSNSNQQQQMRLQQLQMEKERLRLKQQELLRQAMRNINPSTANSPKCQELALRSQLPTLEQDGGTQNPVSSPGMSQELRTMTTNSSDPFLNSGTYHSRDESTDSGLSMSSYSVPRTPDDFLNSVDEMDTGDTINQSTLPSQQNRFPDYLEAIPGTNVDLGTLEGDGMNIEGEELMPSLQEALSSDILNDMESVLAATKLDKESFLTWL

T1 sequence (P46937 whole entry): as the sequence (P46937 whole entry, looked up) above
T1 sequence (P28347 whole entry): as the sequence (P28347 whole entry, looked up) above

As to `CSCC[C@H](NC(=O)[C@@H]1CCCN1C(=O)[C@@H](NC(C)=O)C(C)C)C(=O)N[C@H]1CCSSC[C@@H](C(=O)N[C@@H](CCCCN)C(=O)N2CCC[C@H]2C(=O)N2CCC[C@H]2C(=O)N[C@@H](CCC(=O)O)C(N)=O)NC(=O)[C@H](Cc2ccccc2)NC(=O)[C@H](CO)NC(=O)[C@H](CC(=O)O)NC(=O)[C@@H]2CCCN2C(=O)[C@H](CC(C)C)NC(=O)[C@H](CCCCN)NC(=O)[C@H](CCCNC(=N)N)NC(=O)[C@H](CC(C)C)NC1=O`, the IC50 in assay [1] is 6900 nM.
The same measure, in the same setting: the same measure for `CSCC[C@H](NC(=O)[C@@H]1CCCN1C(=O)[C@@H](NC(C)=O)C(C)C)C(=O)N[C@H]1CCSSC[C@@H](C(=O)N[C@@H](CCCCN)C(=O)N2CCC[C@H]2C(=O)N2CCC[C@H]2C(=O)N[C@@H](CCC(=O)O)C(N)=O)NC(=O)[C@H](Cc2ccccc2)NC(=O)[C@H](CO)NC(=O)[C@H](C)NC(=O)[C@@H]2CCCN2C(=O)[C@H](CC(C)C)NC(=O)[C@H](CCCCN)NC(=O)[C@H](CCCNC(=N)N)NC(=O)[C@H](CC(C)C)NC1=O`: 1500 nM.
On to `CCCC[C@@H]1NC(=O)[C@H](CCCCN)NC(=O)[C@H](CCCNC(=N)N)NC(=O)[C@H](CC(C)C)NC(=O)[C@@H](NC(=O)[C@H](CCSC)NC(=O)[C@@H]2CCCN2C(=O)[C@@H](NC(C)=O)C(C)C)CCSSC[C@@H](C(=O)N[C@@H](CCCCN)C(=O)N2CCC[C@H]2C(=O)N2CCC[C@H]2C(=O)N[C@@H](CCC(=O)O)C(N)=O)NC(=O)[C@H](Cc2ccccc2)NC(=O)[C@H](CO)NC(=O)[C@H](C)NC(=O)[C@@H]2CCCN2C1=O`, for which the Kd in assay [2] stood at 39 nM. Also, the 50% inhibitory concentration (IC50) in assay [1] amounted to 150 nM.
For `CCCCC[C@@H]1NC(=O)[C@H](CCCCN)NC(=O)[C@H](CCCNC(=N)N)NC(=O)[C@H](CC(C)C)NC(=O)[C@@H](NC(=O)[C@H](CCSC)NC(=O)[C@@H]2CCCN2C(=O)[C@@H](NC(C)=O)C(C)C)CCSSC[C@@H](C(=O)N[C@@H](CCCCN)C(=O)N2CCC[C@H]2C(=O)N2CCC[C@H]2C(=O)N[C@@H](CCC(=O)O)C(N)=O)NC(=O)[C@H](Cc2ccccc2)NC(=O)[C@H](CO)NC(=O)[C@H](C)NC(=O)[C@@H]2CCCN2C1=O` the same measures were 18 nM and 42 nM.
On to `CCCCCC[C@@H]1NC(=O)[C@H](CCCCN)NC(=O)[C@H](CCCNC(=N)N)NC(=O)[C@H](CC(C)C)NC(=O)[C@@H](NC(=O)[C@H](CCSC)NC(=O)[C@@H]2CCCN2C(=O)[C@@H](NC(C)=O)C(C)C)CCSSC[C@@H](C(=O)N[C@@H](CCCCN)C(=O)N2CCC[C@H]2C(=O)N2CCC[C@H]2C(=O)N[C@@H](CCC(=O)O)C(N)=O)NC(=O)[C@H](Cc2ccccc2)NC(=O)[C@H](CO)NC(=O)[C@H](C)NC(=O)[C@@H]2CCCN2C1=O`, for which, in assay [1], the half-maximal inhibitory concentration (IC50) is 370 nM.
Same read-out and setting: the same measure for `CSCC[C@H](NC(=O)[C@@H]1CCCN1C(=O)[C@@H](NC(C)=O)C(C)C)C(=O)N[C@H]1CCSSC[C@@H](C(=O)N[C@@H](CCCCN)C(=O)N2CCC[C@H]2C(=O)N2CCC[C@H]2C(=O)N[C@@H](CCC(=O)O)C(N)=O)NC(=O)[C@H](Cc2ccccc2)NC(=O)[C@H](CO)NC(=O)[C@H](C)NC(=O)[C@@H]2CCCN2C(=O)[C@H](CCCC(C)C)NC(=O)[C@H](CCCCN)NC(=O)[C@H](CCCNC(=N)N)NC(=O)[C@H](CC(C)C)NC1=O`: 310 nM; for `CCCC[C@H](NC(=O)[C@@H]1CCCN1C(=O)[C@@H](NC(C)=O)C(C)C)C(=O)N[C@H]1CCSSC[C@@H](C(=O)N[C@@H](CCCCN)C(=O)N2CCC[C@H]2C(=O)N2CCC[C@H]2C(=O)N[C@@H](CCC(=O)O)C(N)=O)NC(=O)[C@H](Cc2ccccc2)NC(=O)[C@H](CO)NC(=O)[C@H](C)NC(=O)[C@@H]2CCCN2C(=O)[C@H](CCCC)NC(=O)[C@H](CCCCN)NC(=O)[C@H](CCCNC(=N)N)NC(=O)[C@H](CC(C)C)NC1=O`: 340 nM.
On the same count and under the same terms, the same measure for `CCCC[C@@H]1NC(=O)[C@H](CCCCN)NC(=O)[C@H](CCCNC(=N)N)NC(=O)[C@H](CC(C)C)NC(=O)[C@@H](NC(=O)[C@H](Cc2ccccc2)NC(=O)[C@@H]2CCCN2C(=O)[C@@H](NC(C)=O)C(C)C)CCSSC[C@@H](C(=O)N[C@@H](CCCCN)C(=O)N2CCC[C@H]2C(=O)N2CCC[C@H]2C(=O)N[C@@H](CCC(=O)O)C(N)=O)NC(=O)[C@H](Cc2ccccc2)NC(=O)[C@H](CO)NC(=O)[C@H](C)NC(=O)[C@@H]2CCCN2C1=O`: 350 nM.
The same measure, in the same setting: next, `CCCC[C@@H]1NC(=O)[C@H](CCCCN)NC(=O)[C@H](CCCNC(=N)N)NC(=O)[C@H](CC(C)C)NC(=O)[C@@H](NC(=O)[C@H](Cc2ccccc2Cl)NC(=O)[C@@H]2CCCN2C(=O)[C@@H](NC(C)=O)C(C)C)CCSSC[C@@H](C(=O)N[C@@H](CCCCN)C(=O)N2CCC[C@H]2C(=O)N2CCC[C@H]2C(=O)N[C@@H](CCC(=O)O)C(N)=O)NC(=O)[C@H](Cc2ccccc2)NC(=O)[C@H](CO)NC(=O)[C@H](C)NC(=O)[C@@H]2CCCN2C1=O`: 380 nM.
For the compound `CCCC[C@@H]1NC(=O)[C@H](CCCCN)NC(=O)[C@H](CCCNC(=N)N)NC(=O)[C@H](CC(C)C)NC(=O)[C@@H](NC(=O)[C@H](Cc2cccc(Cl)c2)NC(=O)[C@@H]2CCCN2C(=O)[C@@H](NC(C)=O)C(C)C)CCSSC[C@@H](C(=O)N[C@@H](CCCCN)C(=O)N2CCC[C@H]2C(=O)N2CCC[C@H]2C(=O)N[C@@H](CCC(=O)O)C(N)=O)NC(=O)[C@H](Cc2ccccc2)NC(=O)[C@H](CO)NC(=O)[C@H](C)NC(=O)[C@@H]2CCCN2C1=O`, in assay [2], the Kd was 15 nM. For the same compound, the IC50 in assay [1] was 25 nM.
Turning to `CCCC[C@@H]1NC(=O)[C@H](CCCCN)NC(=O)[C@H](CCCNC(=N)N)NC(=O)[C@H](CC(C)C)NC(=O)[C@@H](NC(=O)[C@H](Cc2ccc(Cl)cc2)NC(=O)[C@@H]2CCCN2C(=O)[C@@H](NC(C)=O)C(C)C)CCSSC[C@@H](C(=O)N[C@@H](CCCCN)C(=O)N2CCC[C@H]2C(=O)N2CCC[C@H]2C(=O)N[C@@H](CCC(=O)O)C(N)=O)NC(=O)[C@H](Cc2ccccc2)NC(=O)[C@H](CO)NC(=O)[C@H](C)NC(=O)[C@@H]2CCCN2C1=O`, in assay [1], the IC50 stood at 530 nM.
`CCCC[C@@H]1NC(=O)[C@H](CCCCN)NC(=O)[C@H](CCCNC(=N)N)NC(=O)[C@H](CC(C)C)NC(=O)[C@@H](NC(=O)[C@H](CCSC)NC(=O)[C@@H]2CCCN2C(=O)[C@@H](NC(C)=O)C(C)C)CCSSC[C@@H](C(=O)N[C@@H](CCCCN)C(=O)N2CCC[C@H]2C(=O)N2CCC[C@H]2C(=O)N[C@@H](CCC(=O)O)C(N)=O)NC(=O)[C@H](Cc2ccc(F)cc2)NC(=O)[C@H](CO)NC(=O)[C@H](C)NC(=O)[C@@H]2CCCN2C1=O`: the IC50 in assay [1] came out at 75 nM.
Turning to `CSCC[C@H](NC(=O)[C@@H]1CCCN1C(=O)[C@@H](NC(=O)[C@@H](NC(=O)[C@H](CCC(N)=O)NC(=O)[C@@H]1CCCN1C(C)=O)[C@@H](C)O)C(C)C)C(=O)N[C@@H](CCCNC(=N)N)C(=O)N[C@@H](CC(C)C)C(=O)N[C@@H](CCCNC(=N)N)C(=O)N[C@@H](CCCCN)C(=O)N[C@@H](CC(C)C)C(=O)N1CCC[C@H]1C(=O)N[C@@H](C)C(=O)N[C@@H](CO)C(=O)N[C@@H](Cc1ccccc1)C(=O)N[C@@H](Cc1ccccc1)C(=O)N[C@@H](CCCCN)C(=O)N1CCC[C@H]1C(=O)N1CCC[C@H]1C(=O)N[C@@H](CCC(=O)O)C(N)=O` (Ac-PQTVPMRLRKLPASFFKPPE-NH2), the inhibition in assay [3] came out at 83%. Also, the IC50 in assay [1] worked out at 25000 nM.
For `CSCC[C@H](NC(=O)[C@@H]1CCCN1C(=O)[C@@H](NC(=O)[C@@H](NC(=O)[C@H](CCC(N)=O)NC(=O)[C@@H]1CCCN1C(C)=O)[C@@H](C)O)C(C)C)C(=O)N[C@@H](CCCNC(=N)N)C(=O)N[C@@H](CC(C)C)C(=O)N[C@@H](CCCNC(=N)N)C(=O)N[C@@H](CCCCN)C(=O)N[C@@H](CC(C)C)C(=O)N1CCC[C@H]1C(=O)N[C@@H](CC(=O)O)C(=O)N[C@@H](CO)C(=O)N[C@@H](Cc1ccccc1)C(=O)N[C@@H](Cc1ccccc1)C(=O)N[C@@H](CCCCN)C(=O)N1CCC[C@H]1C(=O)N1CCC[C@H]1C(=O)N[C@@H](C)C(N)=O` (Ac-PQTVPMRLRKLPDSFFKPPA-NH2) the same measures were 71% and 43000 nM.
In the case of `CSCC[C@H](NC(=O)[C@@H]1CCCN1C(=O)[C@@H](NC(C)=O)C(C)C)C(=O)N[C@H]1CSSC[C@@H](C(=O)N[C@@H](CCCCN)C(=O)N2CCC[C@H]2C(=O)N2CCC[C@H]2C(=O)N[C@@H](CCC(=O)O)C(N)=O)NC(=O)[C@H](Cc2ccccc2)NC(=O)[C@H](CO)NC(=O)[C@H](CC(=O)O)NC(=O)[C@@H]2CCCN2C(=O)[C@H](CC(C)C)NC(=O)[C@H](CCCCN)NC(=O)[C@H](CCCNC(=N)N)NC(=O)[C@H](CC(C)C)NC1=O` (Ac-VPMCLRKLPDSFCKPPE-NH2; disulfide 4-13), the 50% inhibitory concentration (IC50) in assay [1] is above 100000 nM.
Same read-out and setting: next, `CSCC[C@H](NC(=O)[C@@H]1CCCN1C(=O)[C@@H](NC(C)=O)C(C)C)C(=O)N[C@H]1CSSCC[C@@H](C(=O)N[C@@H](CCCCN)C(=O)N2CCC[C@H]2C(=O)N2CCC[C@H]2C(=O)N[C@@H](CCC(=O)O)C(N)=O)NC(=O)[C@H](Cc2ccccc2)NC(=O)[C@H](CO)NC(=O)[C@H](CC(=O)O)NC(=O)[C@@H]2CCCN2C(=O)[C@H](CC(C)C)NC(=O)[C@H](CCCCN)NC(=O)[C@H](CCCNC(=N)N)NC(=O)[C@H](CC(C)C)NC1=O` (Ac-VPMCLRKLPDSF[hCys]KPPE-NH2; disulfide 4-13): 85000 nM; `CSCC[C@H](NC(=O)[C@@H]1CCCN1C(=O)[C@@H](NC(C)=O)C(C)C)C(=O)N[C@H]1CCSSCC[C@@H](C(=O)N[C@@H](CCCCN)C(=O)N2CCC[C@H]2C(=O)N2CCC[C@H]2C(=O)N[C@@H](CCC(=O)O)C(N)=O)NC(=O)[C@H](Cc2ccccc2)NC(=O)[C@H](CO)NC(=O)[C@H](CC(=O)O)NC(=O)[C@@H]2CCCN2C(=O)[C@H](CC(C)C)NC(=O)[C@H](CCCCN)NC(=O)[C@H](CCCNC(=N)N)NC(=O)[C@H](CC(C)C)NC1=O` (Ac-VPM[hCys]LRKLPDSF[hCys]KPPE-NH2; disulfide 4-13): above 100000 nM.

As usually defined, the IC50 is the concentration that inhibits the measured activity by half. Broadly, the Kd is the constant that tells how readily two partners part at equilibrium. The term inhibition denotes how much of the control response was suppressed.
